Reference: PMC11610652 (Archiv Der Pharmazie, 2024)
Like-named read-outs stand apart in the source and are kept apart here.

Tests used:
SIRT1 [1] = target: T1, SIRT1 (Homo sapiens, UniProt Q96EB6); test: fluorescence-based deacetylase assay kit, human recombinant enzyme; format: biochemical; conditions: read-out: Inhibition (%±SD) / SIRT1 / 100 μM / 50 μM
T1 sequence (Q96EB6 2-747): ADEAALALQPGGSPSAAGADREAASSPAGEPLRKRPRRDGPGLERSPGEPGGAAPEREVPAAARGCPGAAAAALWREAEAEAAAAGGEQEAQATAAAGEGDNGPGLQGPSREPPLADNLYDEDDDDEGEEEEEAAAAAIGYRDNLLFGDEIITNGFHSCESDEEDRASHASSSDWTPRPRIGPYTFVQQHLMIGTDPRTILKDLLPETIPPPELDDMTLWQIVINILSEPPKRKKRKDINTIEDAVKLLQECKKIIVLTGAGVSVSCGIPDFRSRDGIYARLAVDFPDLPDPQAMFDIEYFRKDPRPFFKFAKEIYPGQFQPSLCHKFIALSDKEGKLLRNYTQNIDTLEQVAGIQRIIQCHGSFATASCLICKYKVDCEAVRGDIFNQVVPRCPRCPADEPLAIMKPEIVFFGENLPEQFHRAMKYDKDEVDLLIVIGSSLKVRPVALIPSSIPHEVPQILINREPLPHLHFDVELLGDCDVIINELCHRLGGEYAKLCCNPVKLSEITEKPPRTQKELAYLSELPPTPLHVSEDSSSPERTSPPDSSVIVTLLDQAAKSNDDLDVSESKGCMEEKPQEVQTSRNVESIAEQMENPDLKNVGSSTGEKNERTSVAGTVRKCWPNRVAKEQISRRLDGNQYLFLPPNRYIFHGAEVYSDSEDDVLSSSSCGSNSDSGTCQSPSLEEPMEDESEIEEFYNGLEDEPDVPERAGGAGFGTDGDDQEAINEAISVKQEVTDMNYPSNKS

SIRT2 [2] = target: T2, SIRT2 (Homo sapiens, UniProt Q8IXJ6); test: biochemical; conditions: for inhibition at 50 µM: read-out: Inhibition (%±SD) / SIRT2 / 50 μM
T2 sequence (Q8IXJ6 2-389): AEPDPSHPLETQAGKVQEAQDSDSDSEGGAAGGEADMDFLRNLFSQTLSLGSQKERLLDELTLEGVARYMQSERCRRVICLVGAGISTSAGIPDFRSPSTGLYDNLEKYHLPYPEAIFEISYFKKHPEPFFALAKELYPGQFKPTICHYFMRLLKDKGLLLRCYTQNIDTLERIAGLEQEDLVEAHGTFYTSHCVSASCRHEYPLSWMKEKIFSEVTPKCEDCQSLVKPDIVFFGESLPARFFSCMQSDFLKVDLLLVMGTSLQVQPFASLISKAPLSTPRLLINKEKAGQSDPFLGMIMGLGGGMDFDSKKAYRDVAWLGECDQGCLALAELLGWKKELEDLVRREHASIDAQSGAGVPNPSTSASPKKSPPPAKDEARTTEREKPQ

SIRT1 [3] = target: T1, SIRT1; test: biochemical; conditions: for inhibition at 100 µM: read-out: Inhibition (%±SD) / SIRT1 / 100 μM
SIRT3 [4] = target: T3, SIRT3 (Homo sapiens, UniProt Q9NTG7); test: biochemical; conditions: for inhibition at 100 µM: read-out: Inhibition (%±SD) / SIRT3 / 100 μM; for inhibition at 50 µM: read-out: Inhibition (%±SD) / SIRT3 / 50 μM
T3 sequence (Q9NTG7 102-399): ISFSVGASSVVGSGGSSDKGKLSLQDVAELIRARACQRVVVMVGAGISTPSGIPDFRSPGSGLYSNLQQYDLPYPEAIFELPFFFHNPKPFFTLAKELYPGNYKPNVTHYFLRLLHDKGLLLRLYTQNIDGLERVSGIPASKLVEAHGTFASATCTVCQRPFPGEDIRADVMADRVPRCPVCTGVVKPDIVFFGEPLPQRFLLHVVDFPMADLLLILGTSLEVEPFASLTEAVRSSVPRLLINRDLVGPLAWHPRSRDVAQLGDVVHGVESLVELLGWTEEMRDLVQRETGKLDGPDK

SIRT2 [5] = target: T4, SIRT2 (Homo sapiens, UniProt Q8IXJ6); test: fluorescence-based deacetylase assay kit, human recombinant enzyme; format: biochemical
SIRT2 [6] = target: T4, SIRT2; test: as above; format: biochemical; conditions: read-out: Inhibition (%±SD) / SIRT2 / 50 μM / SIRT1 / 100 μM
SIRT3 [7] = target: T3, SIRT3; test: as above; format: biochemical; conditions: read-out: Inhibition (%±SD) / SIRT3 / 50 μM
[8] = read-out: Inhibition (%±SD) / SIRT2 / 100 μM

| Compound | inhibition at 50 µM (SIRT2 [2]) [%] | inhibition at 100 µM (SIRT2 [2]; [8]) [%] | inhibition at 100 µM (SIRT1 [3]) [%] | inhibition at 100 µM (SIRT3 [4]) [%] | also measured |
| --- | --- | --- | --- | --- | --- |
| NC(=O)C1CCCc2c1[nH]c1ccc(Cl)cc21 (racemic) [EX‐527] |  |  |  |  | inhibition at 50 µM (SIRT1 [1]): 90.2% |
| O=C(Nc1ccc2c(c1)C(=O)c1cc(NC(=O)Nc3nccs3)ccc1-2)Nc1nccs1 [SG1, 1,1′‐(9‐Oxo‐9H‐fluorene‐2,7‐diyl)bis[3‐(thiazol‐2‐yl)urea]] | 72.4 ± 2.88 | 106 ± 4.22 | 22.5 ± 3.74 | 44.7 ± 2.08 | IC50 (SIRT2 [5]): 9.67 µM |
| Cn1ccc(NC(=O)Nc2ccc3c(c2)C(=O)c2cc(NC(=O)Nc4ccn(C)n4)ccc2-3)n1 [SG2] | 21.6 ± 4.19 | 48.5 ± 0.3 | 11.3 ± 1.83 | 17.5 ± 0.57 |  |
| O=C(Nc1ccc2c(c1)C(=O)c1cc(NC(=O)Nc3ccon3)ccc1-2)Nc1ccon1 [SG3, 1,1′‐(9‐Oxo‐9H‐fluorene‐2,7‐diyl)bis[3‐(isoxazol‐3‐yl)urea]] | 77.8 ± 1.7 | 84.4 ± 4.07 |  | 18.6 ± 1.54 | IC50 (SIRT2 [5]): 1.95 µM |
| O=C(Nc1ccc2c(c1)C(=O)c1cc(NC(=O)Nc3ccccn3)ccc1-2)Nc1ccccn1 [SG4, 1,1′‐(9‐oxo‐9H‐fluorene‐2,7‐diyl)bis[3‐(pyridin‐2‐yl)urea]] | 67.6 ± 3.95 | 101 ± 7.54 | 24.7 ± 5.02 | 42.5 ± 4.88 | IC50 (SIRT2 [5]): 6.65 µM |
| O=C(COc1ccc2c(c1)C(=O)c1cc(OCC(=O)Nc3nccs3)ccc1-2)Nc1nccs1 [SG5, 2,2′‐[(9‐Oxo‐9H‐fluorene‐2,7‐diyl)bis(oxy)]bis[N‐(thiazol‐2‐yl)acetamide]] |  | 102 ± 8.24 | 71.2 ± 5.29 | 55.6 ± 4.42 | inhibition at 50 µM (SIRT2 [6]): 62.4%; inhibition at 50 µM (SIRT1 [3]; read-out: Inhibition (%±SD) / SIRT1 / 50 μM): 53.2 ± 1.62%; inhibition at 50 µM (SIRT3 [4]): 51.7 ± 1.56% |
| Cn1ccc(NC(=O)COc2ccc3c(c2)C(=O)c2cc(OCC(=O)Nc4ccn(C)n4)ccc2-3)n1 [SG6] | 64 ± 3.84 | 65.6 ± 3.34 | 27.8 ± 1.31 | 36.8 ± 2.26 | inhibition at 50 µM (SIRT3 [4]): 20.5 ± 7.34% |
| O=C(COc1ccc2c(c1)C(=O)c1cc(OCC(=O)Nc3ccon3)ccc1-2)Nc1ccon1 [SG7] |  | 21.5 ± 2.37 |  |  |  |
| O=C(COc1ccc2c(c1)C(=O)c1cc(OCC(=O)Nc3ccccn3)ccc1-2)Nc1ccccn1 [SG8, 2,2′‐[(9‐Oxo‐9H‐fluorene‐2,7‐diyl)bis(oxy)]bis[N‐(pyridin‐2‐yl)acetamide]] |  | 103 ± 2.61 | 13.2 ± 2.22 | 83.07 ± 0.27 | inhibition at 50 µM (SIRT2 [6]): 99.8%; inhibition at 50 µM (SIRT3 [7]): 76.4% |
| O=C(CSc1ccccc1)Nc1ccc2c(c1)C(=O)c1cc(NC(=O)CSc3ccccc3)ccc1-2 [SG9, N,N′‐(9‐Oxo‐9H‐fluorene‐2,7‐diyl)bis[2‐(phenylthio)acetamide]] | 51 ± 2.28 | 71.4 ± 6.51 |  | 90 ± 3.41 | inhibition at 50 µM (SIRT3 [7]): 85% |
| Cn1ccnc1SCC(=O)Nc1ccc2c(c1)C(=O)c1cc(NC(=O)CSc3nccn3C)ccc1-2 [SG10] |  | 18.1 ± 1.88 |  |  |  |
| Cc1cc(C)nc(SCC(=O)Nc2ccc3c(c2)C(=O)c2cc(NC(=O)CSc4nc(C)cc(C)n4)ccc2-3)n1 [SG11] |  | 17.2 ± 6.1 |  |  |  |
| CN(CC(=O)Nc1ccc2c(c1)C(=O)c1cc(NC(=O)CN(C)c3ccccc3)ccc1-2)c1ccccc1 [SG12, N,N′‐(9‐oxo‐9H‐fluorene‐2,7‐diyl)bis{2‐[methyl(phenyl)amino]acetamide}] |  | 85.5 ± 5.68 | 88.4 ± 4.45 | 95.84 ± 0.52 | inhibition at 50 µM (SIRT2 [6]): 74.7%; inhibition at 50 µM (SIRT3 [7]): 70.1% |
| Cc1ccc(C(=O)Nc2ccc(S(=O)(=O)O)c3cc(S(=O)(=O)O)cc(S(=O)(=O)O)c23)cc1NC(=O)c1cccc(NC(=O)Nc2cccc(C(=O)Nc3cc(C(=O)Nc4ccc(S(=O)(=O)O)c5cc(S(=O)(=O)O)cc(S(=O)(=O)O)c45)ccc3C)c2)c1 [Suramin] |  |  |  |  | inhibition at 100 µM (SIRT2 [2]; read-out: % inhibition): 98.52 ± 0.45%; inhibition (SIRT2 [2]; [8]): 78.92 ± 0.67% |
